The target of assay [1] is T1, hACSL5 (Homo sapiens (Human), UniProt Q9ULC5). As to the kind of experiment: Cell-based assay (CBA) with B12FA in hACSL5-transfected Expi293F / FlpIn TRex293 cells. The following applies: hACSL5-expressing cells. An outline of the steps: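 hACSL5-expressing Expi293F or tetracycline-induced FlpIn TRex293 cells, serum- and glucose-starved 1 h, then treated 3 h with serially diluted compound plus 20 µM B12FA. After fixation, 630/520 nm emission ratio (ex 485 nm) gave % inhibition versus no-inhibitor and 10 µM compound/non-induced controls; IC50 by Hill fit.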
Target sequence in this assay (Q9ULC5 whole entry): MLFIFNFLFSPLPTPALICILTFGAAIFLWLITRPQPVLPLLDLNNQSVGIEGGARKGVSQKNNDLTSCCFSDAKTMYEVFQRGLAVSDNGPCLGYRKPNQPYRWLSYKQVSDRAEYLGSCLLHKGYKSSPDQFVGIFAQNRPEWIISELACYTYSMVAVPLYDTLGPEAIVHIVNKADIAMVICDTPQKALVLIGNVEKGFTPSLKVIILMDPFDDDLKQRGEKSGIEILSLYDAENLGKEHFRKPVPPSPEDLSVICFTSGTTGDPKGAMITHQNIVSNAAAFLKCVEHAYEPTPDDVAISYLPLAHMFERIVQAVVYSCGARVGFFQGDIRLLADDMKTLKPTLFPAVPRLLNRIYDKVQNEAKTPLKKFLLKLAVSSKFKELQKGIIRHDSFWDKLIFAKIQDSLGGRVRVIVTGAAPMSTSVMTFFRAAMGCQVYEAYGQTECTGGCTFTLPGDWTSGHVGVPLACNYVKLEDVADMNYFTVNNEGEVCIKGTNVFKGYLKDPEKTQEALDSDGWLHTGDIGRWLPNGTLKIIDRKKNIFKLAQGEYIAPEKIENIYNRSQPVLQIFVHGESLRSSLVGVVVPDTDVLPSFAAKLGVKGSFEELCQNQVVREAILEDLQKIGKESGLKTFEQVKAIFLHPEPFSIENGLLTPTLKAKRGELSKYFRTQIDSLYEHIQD

Assay [2] addresses T1, hACSL5. As to the kind of experiment: Human ACSL5 coupled enzyme Amplex Red assay. The class given is biochemical. The following applies: read-out: hACSL5 IC50. Summed up:
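Amplex Red coupled readout: 1 mM ATP, 25 μM oleate and 30 μM CoA were added to compound-preincubated enzyme (20 nM, residues 33-683, insect-cell expressed, His-tagged) with coupling peroxidase and acyl-CoA oxidase at pH 7.6. Signal was read at 535/590 nm after 10 minutes at 25° C., and Hill fits yielded half-maximal and maximal inhibition.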
Target sequence in this assay (Q9ULC5 33-683): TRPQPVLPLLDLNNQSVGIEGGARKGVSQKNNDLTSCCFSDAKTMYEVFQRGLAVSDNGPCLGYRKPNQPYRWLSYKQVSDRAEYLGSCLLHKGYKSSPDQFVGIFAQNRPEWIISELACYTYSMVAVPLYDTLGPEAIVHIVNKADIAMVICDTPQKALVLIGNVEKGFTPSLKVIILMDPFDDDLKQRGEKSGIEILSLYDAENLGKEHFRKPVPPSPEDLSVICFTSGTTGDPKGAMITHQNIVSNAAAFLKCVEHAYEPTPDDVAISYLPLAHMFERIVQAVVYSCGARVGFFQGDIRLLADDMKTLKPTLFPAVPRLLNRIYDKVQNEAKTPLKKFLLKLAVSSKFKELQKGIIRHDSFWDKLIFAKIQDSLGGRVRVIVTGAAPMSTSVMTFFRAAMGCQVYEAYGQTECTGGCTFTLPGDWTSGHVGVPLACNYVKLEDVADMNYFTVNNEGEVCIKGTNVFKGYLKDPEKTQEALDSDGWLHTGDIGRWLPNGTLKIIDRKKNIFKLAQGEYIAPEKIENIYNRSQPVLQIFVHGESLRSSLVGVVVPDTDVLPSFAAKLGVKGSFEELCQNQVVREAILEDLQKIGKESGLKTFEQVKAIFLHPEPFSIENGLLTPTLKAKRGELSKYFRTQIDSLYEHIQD

In patent US20250275959A1, “COMPOUNDS AND METHODS OF THEIR USE” (LEXICON PHARMACEUTICALS, INC., priority 2024, published 2025) one finds IC50 data, which are given here for 24 molecules.

The structures appear in SMILES notation. Bounds are passed on as bounds.

For the molecule `CC[C@@H](Oc1ccc(C(=O)NS(=O)(=O)N2CCC(OC3CCN(CCOC)CC3)CC2)c(F)c1F)c1ccc(OCC2CC2)cn1` [(R)-4-(1-(5-(cyclopropylmethoxy)pyridin-2-yl)propoxy)-2,3-difluoro-N-((4-((1-(2-methoxyethyl)piperidin-4-yl)oxy)piperidin-1-yl)sulfonyl)benzamide], the IC50 at hACSL5 [1] and at hACSL5 [2] was under 100 nM each time.

`[2H]C([2H])([2H])N1CCC(Oc2ccc(S(=O)(=O)NC(=O)c3ccc(O[C@H](CC)c4ccc(OCC5CC5)cn4)c(F)c3F)cc2)CC1` [(R)-4-(1-(5-(cyclopropylmethoxy)pyridin-2-yl)propoxy)-2,3-difluoro-N-((4-((1-(methyl-d3)piperidin-4-yl)oxy)phenyl)sulfonyl)benzamide]: the IC50 against hACSL5 [1] and on hACSL5 [2] was under 100 nM throughout.

In the case of `CC[C@@H](Oc1ccc(C(=O)NS(=O)(=O)c2ccc(OC3CCN(C(C)C)CC3)cc2)c(F)c1F)c1ccc(OCC2CC2)cn1` [(R)-4-(1-(5-(cyclopropylmethoxy)pyridin-2-yl)propoxy)-2,3-difluoro-N-((4-((1-isopropylpiperidin-4-yl)oxy)phenyl)sulfonyl)benzamide], the IC50 is 100 to 500 nM on hACSL5 [1] and under 100 nM at hACSL5 [2].

Turning to `CC[C@@H](Oc1ccc(C(=O)NS(=O)(=O)c2ccc(OC3CN(C)C3)cc2)c(F)c1F)c1ccc(OCC2CC2)cn1` [(R)-4-(1-(5-(cyclopropylmethoxy)pyridin-2-yl)propoxy)-2,3-difluoro-N-((4-((1-methylazetidin-3-yl)oxy)phenyl)sulfonyl)benzamide], the values for the IC50 on hACSL5 [1] and at hACSL5 [2] were 100 to 500 nM and under 100 nM, respectively.

For the molecule `CC[C@@H](Oc1ccc(C(=O)NS(=O)(=O)c2ccc(OC3CCN(C)CC3)cc2)c(F)c1F)c1ccc(OCC2CC2)cn1` [(R)-4-(1-(5-(cyclopropylmethoxy)pyridin-2-yl)propoxy)-2,3-difluoro-N-((4-((1-methylpiperidin-4-yl)oxy)phenyl)sulfonyl)benzamide], the IC50 on hACSL5 [1] and at hACSL5 [2] was under 100 nM in each case.

Regarding `CC[C@@H](Oc1ccc(C(=O)NS(=O)(=O)N2CCC(OC3CCN(C)CC3)CC2)c(F)c1F)c1ccc(OCC2CC2)cn1` [(R)-4-(1-(5-(cyclopropylmethoxy)pyridin-2-yl)propoxy)-2,3-difluoro-N-((4-((1-methylpiperidin-4-yl)oxy)piperidin-1-yl)sulfonyl)benzamide], the IC50 on hACSL5 [1] is 100 to 500 nM; on hACSL5 [2], under 100 nM.

Turning to `CC[C@@H](Oc1ccc(C(=O)NS(=O)(=O)c2ccc(OC3CCNCC3)cc2)c(F)c1F)c1ccc(OCC2CC2)cn1` [(R)-4-(1-(5-(cyclopropylmethoxy)pyridin-2-yl)propoxy)-2,3-difluoro-N-((4-(piperidin-4-yloxy)phenyl)sulfonyl)benzamide], the IC50 is over 500 nM against hACSL5 [1] and under 100 nM on hACSL5 [2].

As for `CC[C@@H](Oc1ccc(C(=O)NS(=O)(=O)N2CCN(C(C)C)CC2)c(F)c1F)c1ccc(OCC2CC2)cn1` [(R)-4-(1-(5-(cyclopropylmethoxy)pyridin-2-yl)propoxy)-2,3-difluoro-N-((4-isopropylpiperazin-1-yl)sulfonyl)benzamide], the IC50 on hACSL5 [1] and at hACSL5 [2] was 100 to 500 nM in each case.

As for `CC[C@@H](Oc1ccc(C(=O)NS(=O)(=O)N2CCCN(C)CC2)c(F)c1F)c1ccc(OCC2CC2)cn1` [(R)-4-(1-(5-(cyclopropylmethoxy)pyridin-2-yl)propoxy)-2,3-difluoro-N-((4-methyl-1,4-diazepan-1-yl)sulfonyl)benzamide], the IC50 at hACSL5 [1] and on hACSL5 [2] was 100 to 500 nM throughout.

As for `CC[C@@H](Oc1ccc(C(=O)NS(=O)(=O)N2CCN(C)CC2)c(F)c1F)c1ccc(OCC2CC2)cn1` [(R)-4-(1-(5-(cyclopropylmethoxy)pyridin-2-yl)propoxy)-2,3-difluoro-N-((4-methylpiperazin-1-yl)sulfonyl)benzamide], the 50% inhibitory concentration (IC50) against hACSL5 [1] and at hACSL5 [2] was under 100 nM throughout.

As for `CC[C@@H](Oc1ccc(C(=O)NS(=O)(=O)c2ccc(NC3CCN(C)CC3)cn2)c(F)c1F)c1ccc(OCC2CC2)cn1` [(R)-4-(1-(5-(cyclopropylmethoxy)pyridin-2-yl)propoxy)-2,3-difluoro-N-((5-((1-methylpiperidin-4-yl)amino)pyridin-2-yl)sulfonyl)benzamide], the IC50 was over 500 nM at hACSL5 [1] and under 100 nM at hACSL5 [2].

On to `CC[C@@H](Oc1ccc(C(=O)NS(=O)(=O)c2ccc(OC3CCN(C)CC3)cn2)c(F)c1F)c1ccc(OCC2CC2)cn1` [(R)-4-(1-(5-(cyclopropylmethoxy)pyridin-2-yl)propoxy)-2,3-difluoro-N-((5-((1-methylpiperidin-4-yl)oxy)pyridin-2-yl)sulfonyl)benzamide], for which the IC50 is over 500 nM on hACSL5 [1] and under 100 nM at hACSL5 [2].

On to `CC[C@@H](Oc1ccc(C(=O)NS(=O)(=O)N2CC3(CC(OCCN4CCCC4)C3)C2)c(F)c1F)c1ccc(OCC2CC2)cn1` [(R)-4-(1-(5-(cyclopropylmethoxy)pyridin-2-yl)propoxy)-2,3-difluoro-N-((6-(2-(pyrrolidin-1-yl)ethoxy)-2-azaspiro[3.3]heptan-2-yl)sulfonyl)benzamide], for which the IC50 at hACSL5 [1] is over 500 nM; on hACSL5 [2] it was under 100 nM.

Regarding `CC[C@@H](Oc1ccc(C(=O)NS(=O)(=O)c2ccc(OCCN3CCCC3)nn2)c(F)c1F)c1ccc(OCC2CC2)cn1` [(R)-4-(1-(5-(cyclopropylmethoxy)pyridin-2-yl)propoxy)-2,3-difluoro-N-((6-(2-(pyrrolidin-1-yl)ethoxy)pyridazin-3-yl)sulfonyl)benzamide], the IC50 was over 500 nM against hACSL5 [1] and under 100 nM at hACSL5 [2].

As for `CC[C@@H](Oc1ccc(C(=O)NS(=O)(=O)c2ccc(OCCN3CCCC3)nc2)c(F)c1F)c1ccc(OCC2CC2)cn1` [(R)-4-(1-(5-(cyclopropylmethoxy)pyridin-2-yl)propoxy)-2,3-difluoro-N-((6-(2-(pyrrolidin-1-yl)ethoxy)pyridin-3-yl)sulfonyl)benzamide], the values for the IC50 against hACSL5 [1] and on hACSL5 [2] were 100 to 500 nM and under 100 nM, respectively.

Take `CC[C@@H](Oc1ccc(C(=O)NS(=O)(=O)c2ccc(NC3CCN(C(C)C)CC3)nc2)c(F)c1F)c1ccc(OCC2CC2)cn1` [(R)-4-(1-(5-(cyclopropylmethoxy)pyridin-2-yl)propoxy)-2,3-difluoro-N-((6-((1-isopropylpiperidin-4-yl)amino)pyridin-3-yl)sulfonyl)benzamide]: the IC50 at hACSL5 [1] was over 500 nM; at hACSL5 [2], under 100 nM.

Take `CC[C@@H](Oc1ccc(C(=O)NS(=O)(=O)c2ccc(OC3CCN(C(C)C)CC3)nc2)c(F)c1F)c1ccc(OCC2CC2)cn1` [(R)-4-(1-(5-(cyclopropylmethoxy)pyridin-2-yl)propoxy)-2,3-difluoro-N-((6-((1-isopropylpiperidin-4-yl)oxy)pyridin-3-yl)sulfonyl)benzamide]: the figures for the IC50 against hACSL5 [1] and on hACSL5 [2] were 100 to 500 nM and under 100 nM, respectively.

Consider `CC[C@@H](Oc1ccc(C(=O)NS(=O)(=O)c2ccc(NC3CCN(C)CC3)nc2)c(F)c1F)c1ccc(OCC2CC2)cn1` [(R)-4-(1-(5-(cyclopropylmethoxy)pyridin-2-yl)propoxy)-2,3-difluoro-N-((6-((1-methylpiperidin-4-yl)amino)pyridin-3-yl)sulfonyl)benzamide], for which the IC50 is over 500 nM at hACSL5 [1] and under 100 nM on hACSL5 [2].

Consider `CC[C@@H](Oc1ccc(C(=O)NS(=O)(=O)N2CC3(CC(OC4CCN(C)CC4)C3)C2)c(F)c1F)c1ccc(OCC2CC2)cn1` [(R)-4-(1-(5-(cyclopropylmethoxy)pyridin-2-yl)propoxy)-2,3-difluoro-N-((6-((1-methylpiperidin-4-yl)oxy)-2-azaspiro[3.3]heptan-2-yl)sulfonyl)benzamide], for which the IC50 against hACSL5 [1] is over 500 nM; at hACSL5 [2] it was 100 to 500 nM.

`CC[C@@H](Oc1ccc(C(=O)NS(=O)(=O)c2ccc(OC3CCN(C)CC3)nn2)c(F)c1F)c1ccc(OCC2CC2)cn1` [(R)-4-(1-(5-(cyclopropylmethoxy)pyridin-2-yl)propoxy)-2,3-difluoro-N-((6-((1-methylpiperidin-4-yl)oxy)pyridazin-3-yl)sulfonyl)benzamide]: the IC50 is over 500 nM on hACSL5 [1] and under 100 nM on hACSL5 [2].

With `CC[C@@H](Oc1ccc(C(=O)NS(=O)(=O)c2ccc(OC3CCN(C)CC3)nc2)c(F)c1F)c1ccc(OCC2CC2)cn1` [(R)-4-(1-(5-(cyclopropylmethoxy)pyridin-2-yl)propoxy)-2,3-difluoro-N-((6-((1-methylpiperidin-4-yl)oxy)pyridin-3-yl)sulfonyl)benzamide], the values for the 50% inhibitory concentration (IC50) on hACSL5 [1] and at hACSL5 [2] were 100 to 500 nM and under 100 nM, respectively.

As for `CC[C@@H](Oc1ccc(C(=O)NS(=O)(=O)c2ccc(NCCN3CCCC3)nc2)c(F)c1F)c1ccc(OCC2CC2)cn1` [(R)-4-(1-(5-(cyclopropylmethoxy)pyridin-2-yl)propoxy)-2,3-difluoro-N-((6-((2-(pyrrolidin-1-yl)ethyl)amino)pyridin-3-yl)sulfonyl)benzamide], the IC50 was over 500 nM on hACSL5 [1] and under 100 nM on hACSL5 [2].

On to `CC[C@@H](Oc1ccc(C(=O)NS(=O)(=O)C(C)(C)CN(C)C)c(F)c1F)c1ccc(OCC2CC2)cn1` [(R)-4-(1-(5-(cyclopropylmethoxy)pyridin-2-yl)propoxy)-N-((1-(dimethylamino)-2-methylpropan-2-yl)sulfonyl)-2,3-difluorobenzamide], for which the IC50 against hACSL5 [1] and on hACSL5 [2] was 100 to 500 nM in each case.

Turning to `CC[C@@H](Oc1ccc(C(=O)NS(=O)(=O)c2ccc(OCCN(C)C)cc2)cc1C(F)(F)F)c1ccc(OCC2CC2)cn1` [(R)-4-(1-(5-(cyclopropylmethoxy)pyridin-2-yl)propoxy)-N-((4-(2-(dimethylamino)ethoxy)phenyl)sulfonyl)-3-(trifluoromethyl)benzamide], the figures for the IC50 at hACSL5 [1] and at hACSL5 [2] were 100 to 500 nM and under 100 nM, respectively.
